Key:
purified CD14+ cells = experiment: Cytokine production by purified CD14+ cells (ELISA of supernatants, 36 hrs); assay type: cell-based, human; conditions: for IL-6 production / IL-10 production / IL-12p40 production / TNF-alfa production: Table A
Experimental: Circulating mononuclear cells (MNC) are isolated by density gradient (Ficoll-Hypaque) using buffy coats from 14 normal donors (Servizio Immunotrasfusionale e terapie cellulari, Azienda Ospedaliera Universitaria A. Meyer, Firenze). 200×10^6 MNC are separated by the use of a commercial kit (CD14 isolation kit, Miltenyi) by the addition of 400 μl anti-CD14 monoclonal antibody bound to iron beads followed by isolation on magnetic columns (LS column). 50×10^6 monocytes are recovered by positive selection and are extensively washed with calcium and magnesium-free sterile PBS and then seeded in complete medium plus 10% foetal calf serum in 24 flat bottomed plates at the concentration of 1×10^6/ml. […] The plates are incubated for 36 hrs at 37° C. in 5% CO2 humidified atmosphere and the supernatants are collected after centrifugation at 1200 rpm, aliquoted and then stored at −20° C. up to the assay. […]
(§1) For the determination of cytokines and chemokines of the innate immunity, commercial ELISAs have been used: IL-12p40 (Cytoscreen, Biosource Int, Camarillo, Calif.), IFN-alfa (Cytoscreen), TNF-alfa (Cytoscreen), IL-10 (Pharmingen), IL-6 and CXCL10 (R&D System). 100 μl/well of single supernatants are incubated in flat bottomed plates as specified by the productors and the amounts of the single cytokines are expressed as pg/ml on the basis of a reference curve by using recombinant cytokines.

purified BDCA4+ cells = experiment: Cytokine production by purified BDCA4+ cells (plasmacytoid dendritic cells), ELISA; assay type: cell-based, human; conditions: for IFN-alfa production / IL-6 production / TNF-alfa production / IL-10 production: Table C
Experimental: The preparation of purified BDCA4+ cells has been obtained in a similar way starting from MNC of buffy coats of the same 14 healthy donors. […] By positive selection 5×10^6 plasmacytoid dendritic cells (PDCs) are recovered, extensively washed with calcium and magnesium-free sterile PBS and seeded in complete medium plus 10% foetal calf serum in 24-flat bottomed plates at the concentration 1×10^6/ml. […] The plates are incubated for 36 hrs at 37° C. in 5% CO2 humidified atmosphere and the supernatants are collected after centrifugation at 1200 rpm, aliquoted and then stored at −20° C. up to the assay. […]
as §1

human TLR7 = biological target: T1, human TLR7 (Homo sapiens, UniProt Q9NYK1); experiment: TLR7 activation, NF-kB luciferase reporter in transfected HEK293 cells; assay type: cell-based; conditions: human TLR7-encoding plasmid
T1 construct: expressed in transfected cells; host or cells: HEK293 (transient Nucleofection, Amaxa)
T1 sequence (Q9NYK1 27-1049): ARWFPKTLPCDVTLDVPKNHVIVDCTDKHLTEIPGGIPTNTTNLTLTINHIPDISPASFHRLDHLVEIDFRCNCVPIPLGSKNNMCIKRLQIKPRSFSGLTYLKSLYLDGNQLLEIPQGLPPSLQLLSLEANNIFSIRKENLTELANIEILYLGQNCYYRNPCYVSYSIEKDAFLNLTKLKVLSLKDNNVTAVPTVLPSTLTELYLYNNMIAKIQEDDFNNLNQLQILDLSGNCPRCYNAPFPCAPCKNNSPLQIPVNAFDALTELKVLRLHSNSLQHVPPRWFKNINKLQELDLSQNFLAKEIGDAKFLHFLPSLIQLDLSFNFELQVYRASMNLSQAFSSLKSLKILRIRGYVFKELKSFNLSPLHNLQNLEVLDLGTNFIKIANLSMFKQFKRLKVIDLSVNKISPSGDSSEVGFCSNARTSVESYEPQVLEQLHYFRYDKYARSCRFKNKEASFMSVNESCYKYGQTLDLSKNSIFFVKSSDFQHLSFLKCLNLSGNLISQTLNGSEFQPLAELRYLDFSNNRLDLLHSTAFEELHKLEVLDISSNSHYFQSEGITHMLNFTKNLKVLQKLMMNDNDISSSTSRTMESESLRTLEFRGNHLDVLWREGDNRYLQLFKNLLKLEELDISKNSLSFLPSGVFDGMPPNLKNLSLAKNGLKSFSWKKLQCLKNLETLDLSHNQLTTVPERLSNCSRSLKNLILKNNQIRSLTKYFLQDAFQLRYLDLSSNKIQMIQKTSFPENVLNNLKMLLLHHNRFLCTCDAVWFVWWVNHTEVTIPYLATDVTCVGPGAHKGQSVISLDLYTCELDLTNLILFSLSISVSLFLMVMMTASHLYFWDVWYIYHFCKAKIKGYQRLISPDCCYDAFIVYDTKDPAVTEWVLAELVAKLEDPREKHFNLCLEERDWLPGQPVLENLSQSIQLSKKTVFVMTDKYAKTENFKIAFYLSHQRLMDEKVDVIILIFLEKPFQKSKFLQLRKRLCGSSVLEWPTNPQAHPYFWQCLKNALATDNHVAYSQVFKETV
Experimental: HEK293 cells are detached by trypsin from the plastic surface of the culture bottle, extensively washed with calcium and magnesium-free PBS, counted and adjusted at the concentration 1×10^6 cells/tube in polypropylene V-bottomed tubes. After the final wash, the cells are pelleted and 100 μl transfection buffer (Amaxa) is added together with […], TLR7, TLR8 or TLR9-encoding and ELAM-1 promoter NF-kB luciferase reporter plasmids. The mixture thus obtained is transferred in special cuvettes and transient transfection is obtained in a special apparatus which is able to directly introduce genetic material into the nucleus (Nucleofection®, Amaxa GmbH). The cells are then recovered and cultured at 1×10^5/ml in 48-flat bottomed plates in E-MEM medium plus 5% foetal calf serum for 18 hrs. […] Finally the luciferase activity is measured in the cellular lysates by a commercial kit (Promega).

Nc1nc(SCCCC(=O)ON2C(=O)CCC2=O)nc2c1nc(O)n2Cc1ccccc1 [SA-26E, 4-(6-Amino-9-benzyl-8-hydroxy-9H-purin-2-ylsulfanyl)-butyric acid 2,5-dioxo-pyrrolidin-1-yl ester]
cytokine production from purified CD14+ cells (in words) (purified CD14+ cells; 0.085 μg/ml soluble SA-26E (amount present in Conj-5, -6, -7 and -8)): not able to stimulate the production of any cytokine | IL-6 production (purified CD14+ cells; Donor #1, dose 0.085 μg/ml): 0 pg/mL | IL-10 production (purified CD14+ cells; Donor #1, dose 0.085 μg/ml): 0 pg/mL | IL-12p40 production (purified CD14+ cells; Donor #1, dose 0.085 μg/ml): 0 pg/mL | TNF-alfa production (purified CD14+ cells; Donor #1, dose 0.085 μg/ml): 0 pg/mL | IL-6 production (purified CD14+ cells; Donor #1, dose 0.6 μg/ml): 0 pg/mL | IL-10 production (purified CD14+ cells; Donor #1, dose 0.6 μg/ml): 124 pg/mL | IL-12p40 production (purified CD14+ cells; Donor #1, dose 0.6 μg/ml): 569 pg/mL | TNF-alfa production (purified CD14+ cells; Donor #1, dose 0.6 μg/ml): 345 pg/mL | IL-6 production (purified CD14+ cells; Donor #1, dose 2.5 μg/ml): 11 pg/mL | IL-10 production (purified CD14+ cells; Donor #1, dose 2.5 μg/ml): 618 pg/mL | IL-12p40 production (purified CD14+ cells; Donor #1, dose 2.5 μg/ml): 863 pg/mL | IL-6 production (purified CD14+ cells; Donor #1, dose 10 μg/ml): 2930 pg/mL | IL-10 production (purified CD14+ cells; Donor #1, dose 10 μg/ml): 609 pg/mL | IL-12p40 production (purified CD14+ cells; Donor #1, dose 10 μg/ml): 2500 pg/mL | TNF-alfa production (purified CD14+ cells; Donor #1, dose 10 μg/ml): 2123 pg/mL | IL-6 production (purified CD14+ cells; Donor #2, dose 0.085 μg/ml): 0 pg/mL | IL-10 production (purified CD14+ cells; Donor #2, dose 0.085 μg/ml): 0 pg/mL | IL-12p40 production (purified CD14+ cells; Donor #2, dose 0.085 μg/ml): 0 pg/mL | TNF-alfa production (purified CD14+ cells; Donor #2, dose 0.085 μg/ml): 0 pg/mL | IL-6 production (purified CD14+ cells; Donor #2, dose 0.6 μg/ml): 0 pg/mL | IL-10 production (purified CD14+ cells; Donor #2, dose 0.6 μg/ml): 0 pg/mL | IL-12p40 production (purified CD14+ cells; Donor #2, dose 0.6 μg/ml): 785 pg/mL | TNF-alfa production (purified CD14+ cells; Donor #2, dose 0.6 μg/ml): 466 pg/mL | IL-6 production (purified CD14+ cells; Donor #2, dose 2.5 μg/ml): 4 pg/mL | IL-12p40 production (purified CD14+ cells; Donor #2, dose 2.5 μg/ml): 2464 pg/mL | TNF-alfa production (purified CD14+ cells; Donor #2, dose 2.5 μg/ml): 1267 pg/mL | IL-6 production (purified CD14+ cells; Donor #2, dose 10 μg/ml): 163 pg/mL | IL-10 production (purified CD14+ cells; Donor #2, dose 10 μg/ml): 584 pg/mL | IL-12p40 production (purified CD14+ cells; Donor #2, dose 10 μg/ml): 4800 pg/mL | TNF-alfa production (purified CD14+ cells; Donor #2, dose 10 μg/ml): 3730 pg/mL | cytokine production from purified CD14+ cells (in words) (purified CD14+ cells; text to Tables A and B): intermediate effect | cytokine production from BDCA4+ cells (in words) (purified BDCA4+ cells; 0.085 μg/ml concentration): completely inactive | IFN-alfa production (purified BDCA4+ cells; Donor #1, dose 0.085 μg/ml): 0 pg/mL | IL-6 production (purified BDCA4+ cells; Donor #1, dose 0.085 μg/ml): 0 pg/mL | TNF-alfa production (purified BDCA4+ cells; Donor #1, dose 0.085 μg/ml): 0 pg/mL | IFN-alfa production (purified BDCA4+ cells; Donor #1, dose 0.6 μg/ml): 179 pg/mL | IL-6 production (purified BDCA4+ cells; Donor #1, dose 0.6 μg/ml): 0 pg/mL | IL-10 production (purified BDCA4+ cells; Donor #1, dose 0.6 μg/ml): 0 pg/mL | TNF-alfa production (purified BDCA4+ cells; Donor #1, dose 0.6 μg/ml): 183 pg/mL | IFN-alfa production (purified BDCA4+ cells; Donor #1, dose 2.5 μg/ml): 179 pg/mL | IL-6 production (purified BDCA4+ cells; Donor #1, dose 2.5 μg/ml): 0 pg/mL | IL-10 production (purified BDCA4+ cells; Donor #1, dose 2.5 μg/ml): 0 pg/mL | TNF-alfa production (purified BDCA4+ cells; Donor #1, dose 2.5 μg/ml): 252 pg/mL | IFN-alfa production (purified BDCA4+ cells; Donor #1, dose 10 μg/ml): 486 pg/mL | IL-6 production (purified BDCA4+ cells; Donor #1, dose 10 μg/ml): 675 pg/mL | IL-10 production (purified BDCA4+ cells; Donor #1, dose 10 μg/ml): 896 pg/mL | TNF-alfa production (purified BDCA4+ cells; Donor #1, dose 10 μg/ml): 858 pg/mL | IFN-alfa production (purified BDCA4+ cells; Donor #2, dose 0.085 μg/ml): 0 pg/mL | IL-6 production (purified BDCA4+ cells; Donor #2, dose 0.085 μg/ml): 0 pg/mL | IL-10 production (purified BDCA4+ cells; Donor #2, dose 0.085 μg/ml): 0 pg/mL | TNF-alfa production (purified BDCA4+ cells; Donor #2, dose 0.085 μg/ml): 0 pg/mL | IFN-alfa production (purified BDCA4+ cells; Donor #2, dose 0.6 μg/ml): 669 pg/mL | IL-6 production (purified BDCA4+ cells; Donor #2, dose 0.6 μg/ml): 0 pg/mL | IL-10 production (purified BDCA4+ cells; Donor #2, dose 0.6 μg/ml): 0 pg/mL | TNF-alfa production (purified BDCA4+ cells; Donor #2, dose 0.6 μg/ml): 520 pg/mL | IFN-alfa production (purified BDCA4+ cells; Donor #2, dose 2.5 μg/ml): 2014 pg/mL | IL-6 production (purified BDCA4+ cells; Donor #2, dose 2.5 μg/ml): 760 pg/mL | TNF-alfa production (purified BDCA4+ cells; Donor #2, dose 2.5 μg/ml): 1157 pg/mL | IFN-alfa production (purified BDCA4+ cells; Donor #2, dose 10 μg/ml): 3589 pg/mL | IL-6 production (purified BDCA4+ cells; Donor #2, dose 10 μg/ml): 1439 pg/mL | IL-10 production (purified BDCA4+ cells; Donor #2, dose 10 μg/ml): 750 pg/mL | TNF-alfa production (purified BDCA4+ cells; Donor #2, dose 10 μg/ml): 3405 pg/mL | cytokine production from BDCA4+ cells (in words) (purified BDCA4+ cells; text to Tables C and D): intermediate effect | TLR7 activation (NF-κB luciferase) in transfected HEK293 cells (human TLR7): completely inactive

Source: patent US8822407B2, “Preparation of conjugates comprising adenine derivatives and allergenic proteins and their use for specific immunotherapy of allengenic diseases” (Universita' Degli Studi di Firenze, priority 2010, dated 2014)
